This experiment has as its target CXCR4 (Homo sapiens, UniProt P61073). The experiment can be described thus: Adenylate cyclase (cAMP inhibition) assay, thiadiazine scaffold, CHO-CXCR4-cAMP cells. It counts as cell-based. On the set-up: host or cells: CHO-K1. On the procedure:
Tango™ CXCR4-bla U2OS Cells (Invitrogen; K1779) were used for (β-arrestin recruitment assays and maintained as a monolayer culture in McCoy's 5a (Corning; 10-050-CV) supplemented with 10% dialyzed Fetal Bovine Serum (Gibco; 26400-044), 0.1 mM MEM Non-essential amino acids solution, 25 mM HEPES solution (Corning; 25-060-CI), 1 mM Sodium Pyruvate (Gibco; 11360-070), 200 μg/mL Zeocin selection reagent (Gibco; R25001), 50 μg/mL Hygromycin B (Gibco, 10687010), and 100 μg/mL Geneticin (G418 Sulfate) (Gibco, 10131035). U2OS cells were subcultured twice weekly by 0.05% Trypsin-EDTA treatment (Corning; 25-051-CI) and passaged to continue exponential growth phase for cell signaling assays. All cell cultures were maintained in cell culture incubators at 37° C. with 5% CO2. CHO-K1 CXCR4 cells (DiscoverX, Fremont, CA, USA) were used for cAMP inhibition assays and maintained as a monolayer culture in DMEM/F12 (Corning; 10-091-CV) supplemented with 10% Fetal Bovine Serum (Corning; 35-011-CV) and 100IU penicillin, […] streptomycin sulfate (Corning; 30-002-CI) and […] G418 (Gibco; 101310350. Cells were subculture 2 times weekly by o.o5% Trypsin-EDTA treatment (Corning; 25-051-CI) and passaged to continue exponential growth phase for cell signaling assays. All cell cultures were maintained in cell culture incubators at 37° C. with 5% CO2.CEM-CCRF cells (ATCC CCL-119) were used in both the migration and calcium flux assays and were cultured in growth media consisting of RPMI 1640 (Corning; 10-040-CV) supplemented with 10% Fetal Bovine Serum (Corning; 35-011-CV), and 100 IU penicillin, […] streptomycin sulfate (Corning; 30-002-CI). […] Cells were harvested for use in migration and calcium flux assays at 2.0×10^6 cells/mL to 2.5×10^6 cells/mL and resuspended in assay media to desired density for respective experiments.
Compounds and DMSO normalization to 0.5% were dispensed using the TECAN D300e digital dispenser into the wells of a 384-well white wall clear-bottom assay plate (Griener 781983). […] This cell suspension was dispensed at 20 μL per well into the assay plate and allowed to incubate overnight for approximately 18 hrs with compounds in cell culture incubator at 37° C. with 5% CO2. Following incubation, DMEM/F12 media was gently removed, then the Lance Ultra cAMP Kit (Perkin Elmer; TRF0263) was performed according to the supplier guidelines. […] Time-resolved fluorescence was measured on the BMG LABTECH CLARIOstar Plus (BMG LABTECH Inc., Cary, NC) using the Lance Ultra cAMP kit guidelines for excitation and emission. […]

This note sets out measurements from US20250136617A1 (The Regents of the University of Colorado, A Body Corporate, priority 2022, published 2025).

Entries after “also recorded” stand apart in the source; their conditions may differ. Like-named read-outs stand apart in the source and are kept apart here.

Chain of CXCR4 (P61073 whole entry): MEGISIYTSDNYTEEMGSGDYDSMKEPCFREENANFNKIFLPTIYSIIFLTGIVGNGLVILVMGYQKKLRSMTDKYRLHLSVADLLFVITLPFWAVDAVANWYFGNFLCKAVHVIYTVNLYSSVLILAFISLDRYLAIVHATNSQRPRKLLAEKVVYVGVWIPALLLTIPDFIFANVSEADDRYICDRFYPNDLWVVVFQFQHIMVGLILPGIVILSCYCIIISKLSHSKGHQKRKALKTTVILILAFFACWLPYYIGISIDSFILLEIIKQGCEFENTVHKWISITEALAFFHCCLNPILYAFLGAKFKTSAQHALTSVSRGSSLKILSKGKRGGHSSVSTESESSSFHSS

Regarding `CCOc1ccccc1-c1nnc2n1N=C(c1ccc(N3CCCC3)cc1)CS2` [Thiadiazine Entry 23, 3-(2-ethoxyphenyl)-6-(4-(pyrrolidin-1-yl)phenyl)-7H-[1,2,4]triazolo[3,4-b][1,3,4]thiadiazine], under “listed as UCUF-965”, the “cAMP inhibition activity” value is recorded as “dose-dependent partial agonist response; also recorded: dose-dependent partial inhibition of forskolin-stimulated cAMP production; also recorded: did not inhibit the action of SDF-1α; also recorded: doubling the Emax”. For the same compound, the “cAMP log EC50” value (log value, n=3) is −7.3±0.2 M. Besides, the Emax runs as follows: (read-out: cAMP maximal response (Emax) of SDF-1α potentiated by, pretreatment with 0.1 μM UCUF-965) 110%; (read-out: cAMP maximal response (Emax) of SDF-1α potentiated by, pretreatment with 1 μM UCUF-965) 201%; (read-out: cAMP maximal response (Emax) of SDF-1α potentiated by, pretreatment with 5 μM UCUF-965) 209%.
